Assay results from publication PMC5580309, “Molecular-scale features that govern the effects of O-glycosylation on a carbohydrate-binding module” (Chemical Science, 2015).
Bridge positions count the residues as written; N and C are the ends. Square brackets hold non-standard residues; d marks the D form. Peptide text beside a SMILES is read from it. * marks the point of attachment. αMan = OC[C@H]1O[C@H](*)[C@@H](O)[C@@H](O)[C@@H]1O; hSer = N[C@@H](CCO)C(=O)O

Target: T1, thermolysin (Bacillus thermoproteolyticus, UniProt P00800)
T1 sequence (P00800 233-548): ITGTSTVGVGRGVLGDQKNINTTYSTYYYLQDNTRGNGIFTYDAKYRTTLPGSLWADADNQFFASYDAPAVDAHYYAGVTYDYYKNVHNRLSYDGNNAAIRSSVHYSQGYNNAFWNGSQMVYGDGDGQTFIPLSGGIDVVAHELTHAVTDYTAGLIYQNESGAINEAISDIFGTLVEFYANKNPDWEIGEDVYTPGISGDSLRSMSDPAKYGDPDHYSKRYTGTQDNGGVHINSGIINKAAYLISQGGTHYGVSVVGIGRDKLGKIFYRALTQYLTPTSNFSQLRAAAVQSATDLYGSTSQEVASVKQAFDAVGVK
Assay: Proteolytic stability: half-life to thermolysin degradation
Assay type: in vitro ADME
Conditions: for half-life: thermolysin (isolated protease), thermolysin degradation, mean of three trials ± SD, procedures as described previously (ESI ref 18); for Change in Half-Life to Thermolysin Degradation: glyco-variant minus its corresponding unglycosylated CBM (e.g. 2-1), *** not used in the correlation plot
Procedure: All error bars reported are standard deviations of data achieved from three separate trials.
cellulose that were determined in accordance with our procedures as described previously 18.
The results are presented as mean of three trials ± SD. *Denotes an averaged value of four trials

| Compound | half-life [min] | Change in Half-Life to Thermolysin Degradation [min] |
| --- | --- | --- |
| CC[C@H](C)[C@@H]1NC(=O)CNC(=O)CNC(=O)[C@@H](NC(=O)[C@H](CCC(N)=O)NC(=O)CNC(=O)[C@H](Cc2ccc(O)cc2)NC(=O)[C@H](Cc2c[nH]cn2)NC(=O)[C@@H](NC(=O)[C@H](CCC(N)=O)NC(=O)[C@@H](N)[C@@H](C)O)[C@@H](C)O)CSSC[C@@H]2NC(=O)[C@H]([C@@H](C)O)NC(=O)[C@H]([C@@H](C)O)NC(=O)CNC(=O)[C@H](CO)NC(=O)[C@H](C)NC(=O)[C@H](CSSC[C@@H](C(=O)N[C@@H](CC(C)C)C(=O)O)NC(=O)[C@H](CCC(N)=O)NC(=O)[C@H](CO)NC(=O)[C@H](Cc3ccc(O)cc3)NC(=O)[C@H](Cc3ccc(O)cc3)NC(=O)[C@@H]3CCCN3C(=O)[C@H](CC(N)=O)NC(=O)[C@H](CC(C)C)NC(=O)[C@H](C(C)C)NC(=O)[C@H](CCC(N)=O)NC2=O)NC(=O)[C@H](C(C)C)NC(=O)[C@H]([C@@H](C)O)NC(=O)[C@@H]2CCCN2C(=O)CNC(=O)[C@H](CO)NC(=O)[C@H](Cc2ccc(O)cc2)NC(=O)CNC1=O [CBM variant 12] (H-TQTHYGQCGGIGYSGPTVCASGTTCQVLNPYYSQCL-OH; disulfide 8-25, 19-35) | 21.6 ± 1.2 | – |
| CC[C@H](C)[C@@H]1NC(=O)CNC(=O)CNC(=O)[C@@H](NC(=O)[C@H](CCC(N)=O)NC(=O)CNC(=O)[C@H](Cc2ccc(O)cc2)NC(=O)[C@H](Cc2c[nH]cn2)NC(=O)[C@@H](NC(=O)[C@H](CCC(N)=O)NC(=O)[C@@H](N)[C@@H](C)O)[C@@H](C)O[C@H]2O[C@H](CO)[C@@H](O)[C@H](O)[C@@H]2O)CSSC[C@@H]2NC(=O)[C@H]([C@@H](C)O)NC(=O)[C@H]([C@@H](C)O)NC(=O)CNC(=O)[C@H](CO)NC(=O)[C@H](C)NC(=O)[C@H](CSSC[C@@H](C(=O)N[C@@H](CC(C)C)C(=O)O)NC(=O)[C@H](CCC(N)=O)NC(=O)[C@H](CO)NC(=O)[C@H](Cc3ccc(O)cc3)NC(=O)[C@H](Cc3ccc(O)cc3)NC(=O)[C@@H]3CCCN3C(=O)[C@H](CC(N)=O)NC(=O)[C@H](CC(C)C)NC(=O)[C@H](C(C)C)NC(=O)[C@H](CCC(N)=O)NC2=O)NC(=O)[C@H](C(C)C)NC(=O)[C@H]([C@@H](C)O)NC(=O)[C@@H]2CCCN2C(=O)CNC(=O)[C@H](CO)NC(=O)[C@H](Cc2ccc(O)cc2)NC(=O)CNC1=O [CBM variant 13] (H-TQT(αMan)HYGQCGGIGYSGPTVCASGTTCQVLNPYYSQCL-OH; disulfide 8-25, 19-35) | 68.4 ± 10.8 | 46.8 |
| CC[C@H](C)[C@@H]1NC(=O)CNC(=O)CNC(=O)[C@@H](NC(=O)[C@H](CCC(N)=O)NC(=O)CNC(=O)[C@H](Cc2ccc(O)cc2)NC(=O)[C@H](Cc2c[nH]cn2)NC(=O)[C@H](CS)NC(=O)[C@H](CCC(N)=O)NC(=O)[C@@H](N)[C@@H](C)O)CSSC[C@@H]2NC(=O)[C@H]([C@@H](C)O)NC(=O)[C@H]([C@@H](C)O)NC(=O)CNC(=O)[C@H](CO)NC(=O)[C@H](C)NC(=O)[C@H](CSSC[C@@H](C(=O)N[C@@H](CC(C)C)C(=O)O)NC(=O)[C@H](CCC(N)=O)NC(=O)[C@H](CO)NC(=O)[C@H](Cc3ccc(O)cc3)NC(=O)[C@H](Cc3ccc(O)cc3)NC(=O)[C@@H]3CCCN3C(=O)[C@H](CC(N)=O)NC(=O)[C@H](CC(C)C)NC(=O)[C@H](C(C)C)NC(=O)[C@H](CCC(N)=O)NC2=O)NC(=O)[C@H](C(C)C)NC(=O)[C@H]([C@@H](C)O)NC(=O)[C@@H]2CCCN2C(=O)CNC(=O)[C@H](CO)NC(=O)[C@H](Cc2ccc(O)cc2)NC(=O)CNC1=O [CBM variant 14] (H-TQCHYGQCGGIGYSGPTVCASGTTCQVLNPYYSQCL-OH; disulfide 8-25, 19-35) | 10.8 ± 2.4 | – |
| CC[C@H](C)[C@@H]1NC(=O)CNC(=O)CNC(=O)[C@@H](NC(=O)[C@H](CCC(N)=O)NC(=O)CNC(=O)[C@H](Cc2ccc(O)cc2)NC(=O)[C@H](Cc2c[nH]cn2)NC(=O)[C@H](CS[C@H]2O[C@H](CO)[C@@H](O)[C@H](O)[C@@H]2O)NC(=O)[C@H](CCC(N)=O)NC(=O)[C@@H](N)[C@@H](C)O)CSSC[C@@H]2NC(=O)[C@H]([C@@H](C)O)NC(=O)[C@H]([C@@H](C)O)NC(=O)CNC(=O)[C@H](CO)NC(=O)[C@H](C)NC(=O)[C@H](CSSC[C@@H](C(=O)N[C@@H](CC(C)C)C(=O)O)NC(=O)[C@H](CCC(N)=O)NC(=O)[C@H](CO)NC(=O)[C@H](Cc3ccc(O)cc3)NC(=O)[C@H](Cc3ccc(O)cc3)NC(=O)[C@@H]3CCCN3C(=O)[C@H](CC(N)=O)NC(=O)[C@H](CC(C)C)NC(=O)[C@H](C(C)C)NC(=O)[C@H](CCC(N)=O)NC2=O)NC(=O)[C@H](C(C)C)NC(=O)[C@H]([C@@H](C)O)NC(=O)[C@@H]2CCCN2C(=O)CNC(=O)[C@H](CO)NC(=O)[C@H](Cc2ccc(O)cc2)NC(=O)CNC1=O [CBM variant 15] (H-TQC(αMan)HYGQCGGIGYSGPTVCASGTTCQVLNPYYSQCL-OH; disulfide 8-25, 19-35) | 12 ± 1.8 | 1.2 |
| CC[C@H](C)[C@@H]1NC(=O)CNC(=O)CNC(=O)[C@@H](NC(=O)[C@H](CCC(N)=O)NC(=O)CNC(=O)[C@H](Cc2ccc(O)cc2)NC(=O)[C@H](Cc2c[nH]cn2)NC(=O)[C@@H](CO)NC(=O)[C@H](CCC(N)=O)NC(=O)[C@@H](N)[C@@H](C)O)CSSC[C@@H]2NC(=O)[C@H]([C@@H](C)O)NC(=O)[C@H]([C@@H](C)O)NC(=O)CNC(=O)[C@H](CO)NC(=O)[C@H](C)NC(=O)[C@H](CSSC[C@@H](C(=O)N[C@@H](CC(C)C)C(=O)O)NC(=O)[C@H](CCC(N)=O)NC(=O)[C@H](CO)NC(=O)[C@H](Cc3ccc(O)cc3)NC(=O)[C@H](Cc3ccc(O)cc3)NC(=O)[C@@H]3CCCN3C(=O)[C@H](CC(N)=O)NC(=O)[C@H](CC(C)C)NC(=O)[C@H](C(C)C)NC(=O)[C@H](CCC(N)=O)NC2=O)NC(=O)[C@H](C(C)C)NC(=O)[C@H]([C@@H](C)O)NC(=O)[C@@H]2CCCN2C(=O)CNC(=O)[C@H](CO)NC(=O)[C@H](Cc2ccc(O)cc2)NC(=O)CNC1=O [CBM variant 16] (H-TQ[dS]HYGQCGGIGYSGPTVCASGTTCQVLNPYYSQCL-OH; disulfide 8-25, 19-35) | 11.4 ± 2.4 | – |
| CC[C@H](C)[C@@H]1NC(=O)CNC(=O)CNC(=O)[C@@H](NC(=O)[C@H](CCC(N)=O)NC(=O)CNC(=O)[C@H](Cc2ccc(O)cc2)NC(=O)[C@H](Cc2c[nH]cn2)NC(=O)[C@@H](CO[C@H]2O[C@H](CO)[C@@H](O)[C@H](O)[C@@H]2O)NC(=O)[C@H](CCC(N)=O)NC(=O)[C@@H](N)[C@@H](C)O)CSSC[C@@H]2NC(=O)[C@H]([C@@H](C)O)NC(=O)[C@H]([C@@H](C)O)NC(=O)CNC(=O)[C@H](CO)NC(=O)[C@H](C)NC(=O)[C@H](CSSC[C@@H](C(=O)N[C@@H](CC(C)C)C(=O)O)NC(=O)[C@H](CCC(N)=O)NC(=O)[C@H](CO)NC(=O)[C@H](Cc3ccc(O)cc3)NC(=O)[C@H](Cc3ccc(O)cc3)NC(=O)[C@@H]3CCCN3C(=O)[C@H](CC(N)=O)NC(=O)[C@H](CC(C)C)NC(=O)[C@H](C(C)C)NC(=O)[C@H](CCC(N)=O)NC2=O)NC(=O)[C@H](C(C)C)NC(=O)[C@H]([C@@H](C)O)NC(=O)[C@@H]2CCCN2C(=O)CNC(=O)[C@H](CO)NC(=O)[C@H](Cc2ccc(O)cc2)NC(=O)CNC1=O [CBM variant 17] (H-TQ[dS](αMan)HYGQCGGIGYSGPTVCASGTTCQVLNPYYSQCL-OH; disulfide 8-25, 19-35) | 10.2 ± 1.2 | – |
| CC[C@H](C)[C@@H]1NC(=O)CNC(=O)CNC(=O)[C@@H](NC(=O)[C@H](CCC(N)=O)NC(=O)CNC(=O)[C@H](Cc2ccc(O)cc2)NC(=O)[C@H](Cc2c[nH]cn2)NC(=O)[C@H](CCO)NC(=O)[C@H](CCC(N)=O)NC(=O)[C@@H](N)[C@@H](C)O)CSSC[C@@H]2NC(=O)[C@H]([C@@H](C)O)NC(=O)[C@H]([C@@H](C)O)NC(=O)CNC(=O)[C@H](CO)NC(=O)[C@H](C)NC(=O)[C@H](CSSC[C@@H](C(=O)N[C@@H](CC(C)C)C(=O)O)NC(=O)[C@H](CCC(N)=O)NC(=O)[C@H](CO)NC(=O)[C@H](Cc3ccc(O)cc3)NC(=O)[C@H](Cc3ccc(O)cc3)NC(=O)[C@@H]3CCCN3C(=O)[C@H](CC(N)=O)NC(=O)[C@H](CC(C)C)NC(=O)[C@H](C(C)C)NC(=O)[C@H](CCC(N)=O)NC2=O)NC(=O)[C@H](C(C)C)NC(=O)[C@H]([C@@H](C)O)NC(=O)[C@@H]2CCCN2C(=O)CNC(=O)[C@H](CO)NC(=O)[C@H](Cc2ccc(O)cc2)NC(=O)CNC1=O [CBM variant 18] (H-TQ[hSer]HYGQCGGIGYSGPTVCASGTTCQVLNPYYSQCL-OH; disulfide 8-25, 19-35) | 18 ± 0.6 | – |
| CC[C@H](C)[C@@H]1NC(=O)CNC(=O)CNC(=O)[C@@H](NC(=O)[C@H](CCC(N)=O)NC(=O)CNC(=O)[C@H](Cc2ccc(O)cc2)NC(=O)[C@H](Cc2c[nH]cn2)NC(=O)[C@H](CCO[C@H]2O[C@H](CO)[C@@H](O)[C@H](O)[C@@H]2O)NC(=O)[C@H](CCC(N)=O)NC(=O)[C@@H](N)[C@@H](C)O)CSSC[C@@H]2NC(=O)[C@H]([C@@H](C)O)NC(=O)[C@H]([C@@H](C)O)NC(=O)CNC(=O)[C@H](CO)NC(=O)[C@H](C)NC(=O)[C@H](CSSC[C@@H](C(=O)N[C@@H](CC(C)C)C(=O)O)NC(=O)[C@H](CCC(N)=O)NC(=O)[C@H](CO)NC(=O)[C@H](Cc3ccc(O)cc3)NC(=O)[C@H](Cc3ccc(O)cc3)NC(=O)[C@@H]3CCCN3C(=O)[C@H](CC(N)=O)NC(=O)[C@H](CC(C)C)NC(=O)[C@H](C(C)C)NC(=O)[C@H](CCC(N)=O)NC2=O)NC(=O)[C@H](C(C)C)NC(=O)[C@H]([C@@H](C)O)NC(=O)[C@@H]2CCCN2C(=O)CNC(=O)[C@H](CO)NC(=O)[C@H](Cc2ccc(O)cc2)NC(=O)CNC1=O [CBM variant 19] (H-TQ[hSer](αMan)HYGQCGGIGYSGPTVCASGTTCQVLNPYYSQCL-OH; disulfide 8-25, 19-35) | 20.4 ± 4.2 | 2.4 |
